Laboratory results taken from article PMC6382874, “Succinylation-dependent mitochondrial translocation of PKM2 promotes cell survival in response to nutritional stress” (Cell Death & Disease, 2019).
Like-named read-outs stand apart in the source and are kept apart here.

Tests used:
[1] = system: HCT116 cells; assay: cell viability test, HCT116; type: cell-based, human; details: cell viability, 48 h, read-out: IC50 (HCT116)
Description: We assessed the anti-tumor effects of compound 8 by evaluation of cancer cell viability. Compound 8 reduced cell viability with an IC50 of about 5 µM in MTT reduction assays in HCT116, MCF7, and H1299 cells (Table 2). […] To determine whether cancer cell death brought about by compound 8 is PKM2 dependent, PKM2 was knocked down in HCT116 cells using two different shRNA sequences that specifically targeted exon 10 without interfering with PKM1 expression. Compound 8 is an inhibitor which causes a loss of function of PKM2. If PKM2 is a specially targeted by compound 8, its knockdown should render cells more vulnerable to compound 8-mediated PKM2 inhibition since shRNA and compound 8 work synergistically by reducing the intracellular drug target concentration.
Cells were seeded in 96-well plates at 5000 cells/well in DMEM media overnight. Cells were treated with different concentrations of test compound for 48 h at 37 °C in 5% CO2. Cell viability was assayed with the MTS assay (Promega) and trypan blue staining according to the manufacturer’s instructions.

[2] = molecular target: T1, PKL (Homo sapiens, UniProt P30613); assay: fluorescent PK-LDH coupled assay, PKL; type: biochemical; details: PK-LDH coupled assay; read-out: IC50 (PKL)
T1 construct: purchased Sino Biological Inc
T1 sequence (P30613 1-543 isoform P30613-2, species assumed): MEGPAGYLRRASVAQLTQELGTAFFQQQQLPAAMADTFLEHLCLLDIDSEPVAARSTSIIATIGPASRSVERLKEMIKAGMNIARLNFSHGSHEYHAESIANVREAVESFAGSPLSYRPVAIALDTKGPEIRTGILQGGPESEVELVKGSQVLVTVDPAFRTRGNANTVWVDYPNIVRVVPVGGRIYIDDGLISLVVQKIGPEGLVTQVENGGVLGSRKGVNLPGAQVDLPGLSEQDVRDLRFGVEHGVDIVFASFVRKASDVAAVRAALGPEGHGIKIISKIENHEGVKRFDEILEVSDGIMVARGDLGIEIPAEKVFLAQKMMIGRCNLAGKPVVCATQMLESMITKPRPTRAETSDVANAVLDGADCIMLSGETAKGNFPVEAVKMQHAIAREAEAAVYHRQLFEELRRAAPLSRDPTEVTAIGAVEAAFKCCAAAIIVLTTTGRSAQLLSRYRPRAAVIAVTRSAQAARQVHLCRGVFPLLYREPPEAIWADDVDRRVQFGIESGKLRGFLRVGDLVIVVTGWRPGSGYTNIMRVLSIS
Description: (§1) Human cDNA for PKM2, PKM1, and VDAC3 were separately cloned into a pET28a (+) and pGEX-4T-1 vector with an N-terminal His-tag and N-terminal GST-tag and purified from the Escherichia coli strain BL21 (Invitrogen) using Ni–agarose beads and GST agarose beads (Qiagen) as described previously. PKL was purchased from Sino Biological Inc. in China.
(§2) Pyruvate kinase activity was measured with a fluorescent pyruvate kinase–lactate dehydrogenase coupled assay as described previously. All compounds were tested in a kinetic mode by coupling the generation of pyruvate by pyruvate kinase to the depletion of NADH through lactate dehydrogenase. For PKM2, 40 μL of buffer (50 mM Tris–HCl, pH 7.5, 10 mM KCl, 5 mM MgCl2), 1 μL of compound and 5 μL of enzyme solution were dispensed into Corning black solid 96-well plates and incubated for 15 min. Totally, 55 μL of substrate mix (final concentration, 0.5 mM PEP, 4.0 mM ADP, 0.12 mM NADH, 0.25 mM FBP, and 1 unit LDH) were then added, and the plates were placed in a FlexStation3 (Molecular Devices), followed by determination of NADH fluorescence at 30 s exposure intervals for 3–6 min. Data were collected on a FlexStation3.

[3] = system: HCT116 xenografts; assay: HCT116 xenograft tumor growth in nude mice; type: in vivo, nude mice (BALB/C); details: 15mg/kg, intraperitoneal, once every two days
Description: All animal procedures were performed in accordance with guidelines approved by the Animal Experimentation Ethics Committee of Peking University. Female nude mice (BALB/C, 4–6 weeks old) were injected with 2.0 × 10^6 HCT116 cells subcutaneously in the armpit. Approximately, 10 days later, pairs of mice (N = 7) were injected with compound 8 or vehicle control. Intraperitoneal injection was performed in the mouse. The animals were injected once every two days. Tumor measurements were performed once every 2 days. Tumor volume was calculated using the following equation: V = L(S2)π/6, where L is the longer and S is the shorter of the two tumor dimensions.

[4] = molecular target: T2, PKM2-VDAC3 interaction (Homo sapiens, UniProt P14618); assay: PKM2-VDAC3 interaction, stag pull down in HCT116 cells; type: cell-based; details: 20 µM, 8 h
T2 construct: expressed in transfected cells; host or cells: HCT116
T2 sequence (P14618 whole entry): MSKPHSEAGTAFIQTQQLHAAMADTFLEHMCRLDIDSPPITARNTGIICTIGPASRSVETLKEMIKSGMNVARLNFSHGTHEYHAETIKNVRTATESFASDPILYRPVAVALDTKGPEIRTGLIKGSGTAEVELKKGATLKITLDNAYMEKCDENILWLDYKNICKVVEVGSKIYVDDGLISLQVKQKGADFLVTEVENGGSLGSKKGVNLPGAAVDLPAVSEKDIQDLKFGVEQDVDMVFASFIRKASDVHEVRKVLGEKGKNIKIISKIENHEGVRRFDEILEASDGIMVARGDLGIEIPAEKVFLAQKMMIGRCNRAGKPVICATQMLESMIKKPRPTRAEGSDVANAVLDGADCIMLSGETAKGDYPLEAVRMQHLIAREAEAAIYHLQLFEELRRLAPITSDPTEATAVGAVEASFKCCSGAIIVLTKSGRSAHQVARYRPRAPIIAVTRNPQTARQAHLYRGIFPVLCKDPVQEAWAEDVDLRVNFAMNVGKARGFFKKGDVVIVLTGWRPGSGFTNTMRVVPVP
Description: Fig. 6 Compound 8 blocks PKM2 mitochondrial translocation under nutritional stress and inhibits tumor growth in vivo. a Compound 8 blocks glucose starvation induced PKM2 mitochondrial translocation. Isolation of mitochondria and immunoblot of PKM2, tubulin and Tom 40 were carried out with or without compound 8 treatment. b Compound 8 disrupts interaction of PKM2 and VDAC3. HCT116 cells were transfected with HA-tagged PKM2, cells were harvested and subjected to stag pull down after 8 h 20 µM compound 8 treatment. c Compound 8 induces VDAC3 for degradation. cells were harvested and evaluated VDAC3 protein levels after 8 h 10 or 20 µM compound 8 treatment. d, e Compound 8 caused a decrease in the rate of NADH oxidation. After 8 h of treatment with 20 µM compound 8, HCT116 cells mitochondria were isolated for NADH oxidation assays. NAD/NADH ratios in HCT116 cell lysates were evaluated by LC–MS. f Compound 8 inhibited ATP production in HCT116 cells. g The tumor volume (n = 7) of HCT116 xenografts from mice with intraperitoneal injection of compound 8 and vehicle control
About 2.5 mg whole cellular extracts were prepared in 700 μl RIPA buffer (50 mM Tris-HCl, pH 8.0, 150 mM NaCl, 1.5 mM MgCl2, 0.1% sodium dodecyl sulfate (SDS), 0.5% deoxycholate, 0.5% NP-40, 1 mM phenylmethylsulfonyl fluoride (PMSF), 1× protease inhibitor cocktail (Roche)). […]

[5] = molecular target: PKM2 (Homo sapiens, UniProt P14618); assay: fluorescent pyruvate kinase-lactate dehydrogenase (PK-LDH) coupled assay, PKM2; type: biochemical; parameters: His-tag (N); made in house; host or cells: Escherichia coli BL21; details: for selectivity for PKM2 over PKM1 and PKL: Supplementary Figure S4c
PKM2, sequence (P14618 whole entry): as above
Description: A random screening of an in-house small molecule library (~1000 total molecules) was undertaken to identify new PKM2 modulators, which can block the interaction of PKM2 and VDAC3. The activity of these test compounds was assessed with a fluorescent PK-LDH coupled assay by a previously reported method (Supplementary Figure S4a)[37]. […] We undertook structural optimization by chemical modification. We designed new compounds utilizing a methyl group instead of the NP-1 chlorine moiety. Synthesis of target compounds was carried out according to the six-step protocol outlined in Supplementary Figure S4d, which was based on a previously described procedure[39],[40].
as §1, §2

`CCCN(CCC)P(N)(=O)OCC1=CC(=O)c2ccccc2C1=O` (stereo not drawn) [Compound 8] gave an IC50 ([1]; Homo sapiens, HCT-116, 48 h) of ~5 µM, an IC50 [1] of 5.19 ± 1.74 µM and an IC50 [2] of 20.4 ± 3.54 µM. For the same compound, the “colon cancer xenograft growth (tumor volume)” value [3] was “significantly reduced”, the “interaction of PKM2 with VDAC3” value [4] was “abolished its interaction with VDAC3” and the “selectivity for PKM2 over PKM1 and PKL” value [5] was “markedly inhibited PKM2, but inhibited PKM1 and PKL to much smaller extent”. The “selectivity for PKM2 over PKM1 and PKL” value ([5]; listed as compound 8) was “PKM2 inhibitor of high selectivity”, the “IC50 on PKM2 relative to NP-1” value ([5]; ratio of IC50 values of Table 1) was “about threefold lower than that of NP-1” and the IC50 ([5]; recombinant enzyme, PK-LDH coupled assay, 15 min preincubation, read-out: IC50 (PKM2)) was 0.77 ± 0.3 µM.
